This passage reports Activity results from ChEMBL document CHEMBL4819059, “3-Hydroxy-4-methyldecanoic Acid-Containing Cyclotetradepsipeptides from an Endolichenic Beauveria sp” (J Nat Prod, 2021).

Common to all, as to type: functional, cell-based
For experiment [1], the system named is L6. Briefly: Induction of glucose uptake in rat L6 myoblasts at 50 uM after 24 hrs.
The subject of experiment [2] is HEI-OC1. Briefly: Protective activity against […] HEI-OC1 cells assessed as cell viability at 10 uM after 48 hrs by CCK8 assay.
For experiment [3], the system named is L6. In words: Induction of glucose uptake in rat L6 myotubes after 24 to 48 hrs. The note with it: dose 2.5-80 µM, time 24-48 hrs.
The test system of experiment [4] is L6. Briefly: Induction of glucose uptake in rat L6 myoblasts after 24 hrs. The note with it: dose 0.3125-80 µM.

SMILES strings stand for the structures. Calls of active or inactive are those of the source. The calls are words filed in the database; no cut-off is given here.

Turning to `CCCCCC[C@H](C)[C@@H]1CC(=O)N[C@@H](Cc2c[nH]c3ccccc23)C(=O)N[C@@H](Cc2ccc(O)cc2)C(=O)N[C@H](CC(C)C)C(=O)O1`, in experiment [1], the result was Active.

Consider `CCCCCC[C@H](C)[C@@H]1CC(=O)N[C@@H](Cc2ccc(O)cc2)C(=O)N[C@@H](Cc2ccccc2)C(=O)N[C@H]([C@@H](C)CC)C(=O)O1`, for which the outcome in experiment [2] was Active.

`CCCCCC[C@H](C)[C@@H]1CC(=O)N[C@@H](Cc2c[nH]c3ccccc23)C(=O)N[C@@H](Cc2ccccc2)C(=O)N[C@H]([C@@H](C)CC)C(=O)O1`: the Activity entry in experiment [3] and in experiment [4] was “Dose-Dependent Effect” each time. For the same molecule, the result in experiment [1] and in experiment [2] was Active.

Take `CCCCCC[C@H](C)[C@@H]1CC(=O)N[C@@H](Cc2c[nH]c3ccccc23)C(=O)N[C@@H](Cc2ccccc2)C(=O)N[C@H](CC(C)C)C(=O)O1`: in experiment [2], the outcome was Active.

With `CCCCCC[C@H](C)[C@@H]1CC(=O)N[C@@H](Cc2c[nH]c3ccccc23)C(=O)N[C@@H](Cc2ccc(O)cc2)C(=O)N[C@H]([C@@H](C)CC)C(=O)O1`, in experiment [1], the result was Active.

On to `CCCCCCC(C)[C@@H]1CC(=O)N[C@@H](Cc2ccc(O)cc2)C(=O)N[C@@H](Cc2ccc(O)cc2)C(=O)N[C@H]([C@@H](C)CC)C(=O)O1` (some centres undefined), for which the result in experiment [1] was Active.
